# Measurements taken from US20050020631A1, “3-Substituted benzofurans as therapeutic agents” (priority 2003, published 2005).
# Biological target: T1, p101/p110γ protein (PI3Kγ) (Homo sapiens, UniProt P48736)
# T1 construct: HA; made in house; host or cells: Spodoptera frugiperda (Sf9) cells, baculovirus coinfection
# Assay: PI3Kγ In Vitro Kinase Assay
# Assay type: biochemical
# Conditions: purified recombinant p101/p110γ with G protein β1/γ2 subunits; 20 μM ATP, [γ-32P-ATP]; 25 μM PIP2 lipid micelles; 20 minutes at room temperature
# Method: Spodtera frugiperda cells, grown in ESF921 media, were coinfected with baculovirus expressing a glu-tagged p101 and baculovirus expressing an HA-tagged p110γ, at a 3:1 ratio of p101 baculovirus to p110γ baculovirus. Sf9 cells were grown to 1×10^7 total cells/mL in 10L bioreactors and harvested 48-72 hours post infection. Samples of infected cells were then tested for expression of p101/p110γ PI3 kinase by immunoprecipitation and Western Blot analysis methods (see below). To purify PI3Kγ, 4 volumes of room temperature hypotonic lysis buffer (1 mM MgCl2, 1 mM DTT, 5 mM EGTA, 1 mM Pefabloc, 0.5 μM aprotinin, 5 μM leupeptin, 2 μM pepstatin, 5 μM E64, pH 8) per gram of cell paste, was poured onto frozen cell pellets with stirring, then lysed in a nitrogen “bomb” at 400 psi (599HC […], Parr Instrument Co, Moline, Ill.). NaCl was added to 150 mM, and sodium cholate was added to 1% and mixed for another 45 minutes. The lysates were clarified by centrifugation for 25 minutes at 14,000 rpm. The lysates were then loaded over anti-glu-linked Protein-G Sepaharose beads (Covance Research Products, Richmond, Calif.) using 20 mL resin/50 g cell paste. The column was washed with 15 volumes of wash buffer (1 mM DTT, 0.2 mM EGTA, 1 mM Pefabloc, 0.5 μM aprotinin, 5 μM leupeptin, 2 μM pepstatin, 5 μM E64, 150 mM NaCl, 1% sodium cholate, pH 8). PI3Kγ was eluted with 6 column volumes of wash buffer that contain 100 μg/mL of a peptide that competes for binding of the glu tag. The column fractions with the eluted protein (determined by taking OD280 readings) were collected and dialyzed in 0.2 mM EGTA, 1 mM DTT, 1 mM Pefabloc, 5 μM leupeptin, 0.5% sodium cholate, 150 mM NaCl, and 50% glycerol, pH 8. The fractions were stored at -80° C. until further use. Spodtera frugiperda cells were coinfected with baculovirus expressing a glu-tagged G protein β1 and baculovirus expressing a G protein […], at a 1:1 ratio of glu-tagged G protein β1 baculovirus to G protein β2 baculovirus. Sf9 cells are grown in 10 L bioreactors and harvested 48-72 hours post infection. Samples of infected cells were tested for G protein β1/β2 expression by Western Blot analysis, as described below. Cell lysates were homogenized and loaded onto a column of glu-tagged beads as in Biological Example 1 and competed off the column with a glu peptide and processed as described in Biological Example 1. The inhibitory properties of the compounds in Table 1 were assayed in an in vitro PI3K assay. In a 96-well polypropylene plate, each well was spotted with 2 μL of 50 times the desired final concentration of compound in DMSO. Purified recombinant p101/p110γ protein (0.03 μg; 2.7 nM) and G protein β1/γ2 subunits (0.09 μg; 57.7 nM) for each reaction was combined in the assay buffer (30 mM HEPES, 100 mM NaCl, 1 mM EGTA, and 1 mM DTT). ATP and [γ-^32P-ATP] (0.09 μCi) were added to this mixture so that the final ATP concentration in the reaction was 20 μM. Lipid micelles were formed by sonicating phosphatidylinositol-4,5-diphosphate (PIP2), phosphatidylethanolamine (PE), and Na-cholate in the assay buffer for 10 minutes, adding MgCl2 and incubating on ice for 20 minutes, for final concentrations of 25 μM PIP2, 300 μM PE, 0.02% Na-cholate, and 10 mM MgCl2 in the reaction. The reactions were started by adding equal volumes lipid and enzyme mixture in a total volume of 50 μL, allowed to run for 20 minutes at room temperature, and stopped with 100 μL 75 mM H3PO4. The lipid product was transferred to a glass fiber filter plate and washed with 74 mM H3PO4 several times. The presence of radioactive lipid product (PIP3) was measured by adding Wallac Optiphase mix to each well and counting in a Wallac 1450 Trilux plate reader (PerkinElmer Life Sciences Inc., Boston, Mass. 02118). The IC50 for each compound tested is reported in μM in Table 1: […]
# T1 sequence (P48736 whole entry, species assumed): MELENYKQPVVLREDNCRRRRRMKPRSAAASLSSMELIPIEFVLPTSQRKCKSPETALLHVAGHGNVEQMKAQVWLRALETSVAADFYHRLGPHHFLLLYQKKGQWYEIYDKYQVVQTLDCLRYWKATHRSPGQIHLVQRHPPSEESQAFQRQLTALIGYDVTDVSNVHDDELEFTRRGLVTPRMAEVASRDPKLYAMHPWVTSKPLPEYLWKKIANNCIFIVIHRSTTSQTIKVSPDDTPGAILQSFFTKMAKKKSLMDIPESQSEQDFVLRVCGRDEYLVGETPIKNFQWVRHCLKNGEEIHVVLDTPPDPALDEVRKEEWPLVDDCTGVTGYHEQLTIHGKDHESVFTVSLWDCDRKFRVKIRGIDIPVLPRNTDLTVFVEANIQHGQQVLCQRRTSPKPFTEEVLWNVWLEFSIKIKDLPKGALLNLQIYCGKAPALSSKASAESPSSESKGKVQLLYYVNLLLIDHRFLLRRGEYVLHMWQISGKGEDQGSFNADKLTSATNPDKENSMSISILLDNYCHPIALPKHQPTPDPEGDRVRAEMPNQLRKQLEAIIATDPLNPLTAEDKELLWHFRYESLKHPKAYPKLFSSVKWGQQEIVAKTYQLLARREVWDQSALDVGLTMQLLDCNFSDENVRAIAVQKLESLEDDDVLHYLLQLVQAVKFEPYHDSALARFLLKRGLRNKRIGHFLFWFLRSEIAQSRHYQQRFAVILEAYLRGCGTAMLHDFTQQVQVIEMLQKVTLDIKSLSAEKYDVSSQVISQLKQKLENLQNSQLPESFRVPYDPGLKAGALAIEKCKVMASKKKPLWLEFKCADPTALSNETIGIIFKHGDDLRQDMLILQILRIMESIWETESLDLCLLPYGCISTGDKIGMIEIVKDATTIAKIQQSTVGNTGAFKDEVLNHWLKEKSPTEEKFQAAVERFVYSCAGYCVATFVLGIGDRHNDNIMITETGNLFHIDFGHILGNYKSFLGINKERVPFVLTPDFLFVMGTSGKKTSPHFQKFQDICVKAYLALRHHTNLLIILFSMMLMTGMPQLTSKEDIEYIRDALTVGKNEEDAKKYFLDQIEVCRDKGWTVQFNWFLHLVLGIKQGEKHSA
# T1 sequence (Q8WYR1 whole entry partner, species assumed): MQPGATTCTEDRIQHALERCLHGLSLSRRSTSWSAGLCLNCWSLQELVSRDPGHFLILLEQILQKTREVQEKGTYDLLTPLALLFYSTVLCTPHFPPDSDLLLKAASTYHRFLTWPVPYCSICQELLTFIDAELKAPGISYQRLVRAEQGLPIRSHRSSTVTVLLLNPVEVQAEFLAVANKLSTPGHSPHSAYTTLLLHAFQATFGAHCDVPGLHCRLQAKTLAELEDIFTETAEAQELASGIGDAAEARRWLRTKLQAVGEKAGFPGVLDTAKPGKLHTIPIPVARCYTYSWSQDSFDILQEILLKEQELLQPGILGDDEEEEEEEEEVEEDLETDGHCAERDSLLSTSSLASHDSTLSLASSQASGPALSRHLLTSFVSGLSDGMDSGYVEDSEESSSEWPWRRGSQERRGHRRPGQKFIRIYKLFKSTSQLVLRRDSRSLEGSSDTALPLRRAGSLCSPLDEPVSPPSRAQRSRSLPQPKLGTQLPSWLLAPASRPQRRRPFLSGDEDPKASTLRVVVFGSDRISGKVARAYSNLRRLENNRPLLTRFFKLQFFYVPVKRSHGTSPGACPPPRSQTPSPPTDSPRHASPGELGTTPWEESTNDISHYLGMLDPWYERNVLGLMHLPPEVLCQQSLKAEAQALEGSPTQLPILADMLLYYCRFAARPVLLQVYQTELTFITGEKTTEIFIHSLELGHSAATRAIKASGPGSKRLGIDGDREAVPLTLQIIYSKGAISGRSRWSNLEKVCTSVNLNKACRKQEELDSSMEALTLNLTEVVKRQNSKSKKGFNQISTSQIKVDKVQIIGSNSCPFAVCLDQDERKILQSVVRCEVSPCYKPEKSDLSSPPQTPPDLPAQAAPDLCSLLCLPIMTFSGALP
row,Compound,IC50
1,"O=C(Nc1nnn[nH]1)c1oc2ccc(Cl)cc2c1OCC1CCC1 [Example 35, 5-Chloro-3-cyclobutylmethoxy-benzofuran-2-carboxylic acid (1H-tetrazol-5-yl)-amide]",3100 nM
2,"O=C(Nc1nnn[nH]1)c1oc2ccc(Cl)cc2c1OCC1CC1 [Example 44, 5-Chloro-3-cyclopropylmethoxy-benzofuran-2-carboxylic acid (1H-tetrazol-5-yl)-amide]",9420 nM
3,"O=C(Nc1nnn[nH]1)c1oc2ccc(Cl)cc2c1OC1CCC1 [Example 37, 5-Chloro-3-cyclobutoxy-benzofuran-2-carboxylic acid (1H-tetrazol-5-yl)-amide]",2020 nM
4,"CC(Oc1c(C(=O)Nc2nnn[nH]2)oc2ccc(Cl)cc12)C1CCCC1 (stereo not drawn) [Example 39, 5-Chloro-3-(1-cyclopentyl-ethoxy)-benzofuran-2-carboxylic acid (1H-tetrazol-5-yl)-amide]",2700 nM
5,5-Chloro-3(1-methyl-cyclopropoxymethoxy)-benzofuran-2-carboxylic acid (1H-tetrazol-5-yl)-amide [Example 34],1460 nM
6,"C=C(C)C1CCC(C)C(Oc2c(C(=O)Nc3nnn[nH]3)oc3ccc(OC)cc23)C1 (stereo not drawn) [Example 7, 3-(5-Isopropenyl-2-methyl-cyclohexyloxy)-5-methoxy-benzofuran-2-carboxylic acid (1H-tetrazol-5-yl)-amide]",700 nM
7,"O=C(Nc1nnn[nH]1)c1oc2ccc(Cl)cc2c1OC1CCCCC1 [Example 42, 5-Chloro-3-cyclohexyloxy-benzofuran-2-carboxylic acid (1H-tetrazol-5-yl)-amide]",645 nM
8,"O=C(Nc1nnn[nH]1)c1oc2ccc(Cl)cc2c1OCC1CCCC1 [Example 38, 5-Chloro-3cyclopentylmethoxy-benzofuran-2-carboxylic acid (1H-tetrazol-5-yl)-amide]",1040 nM
9,"CC1CCC(Oc2c(C(=O)Nc3nnn[nH]3)oc3ccc(Cl)cc23)CC1C (stereo not drawn) [Example 40, 5-Chloro-3-(3,4-dimethyl-cyclohexyloxy)-benzofuran-2-carboxylic acid (1H-tetrazol-5-yl)-amide]",1100 nM
10,"O=C(Nc1nnn[nH]1)c1oc2ccc(Cl)cc2c1OC1CCCCCC1 [Example 36, 5-Chloro-3-cycloheptyloxy-benzofuran-2-carboxylic acid (1H-tetrazol-5-yl)-amide]",950 nM

# Compounds with a lower IC50, results first:
row,IC50,Compound
1,185 nM,5-Methoxy-3-(6-methyl-cyclohex-3-enylmethoxy)-benzofuran-2-carboxylic acid (1H-tetrazol-5-yl)-amide [Example 16]
2,180 nM,"COc1ccc2oc(C(=O)Nc3nnn[nH]3)c(OC3CCCCC3C)c2c1 (stereo not drawn) [Example 5, 5-Methoxy-3-(2-methyl-cyclohexyloxy)-benzofuran-2-carboxylic acid (1H-tetrazol-5-yl)-amide]"
3,130 nM,"COc1ccc2oc(C(=O)Nc3nnn[nH]3)c(OC3CCCCC3C)c2c1 (stereo not drawn) [Example 18, 5-Methoxy-3-(2-methyl-cyclohexyloxy)-benzofuran-2-carboxylic acid (1H-tetrazol-5-yl)-amide]"
4,67 nM,"COc1ccc2oc(C(=O)Nc3nnn[nH]3)c(OC3CCCC(C)C3)c2c1 (stereo not drawn) [Example 14, 5-Methoxy-3-(3-methyl-cyclohexyloxy)-benzofuran-2-carboxylic acid (1H-tetrazol-5-yl)-amide]"
5,100 nM,"COc1ccc2oc(C(=O)Nc3nnn[nH]3)c(OC3CC(C)CC(C)C3)c2c1 (stereo not drawn) [Example 17, 3-(3,5-Dimethyl-cyclohexyloxy)-5-methoxy-benzofuran-2-carboxylic acid (1H-tetrazol-5-yl)-amide]"
6,305 nM,"COc1ccc2oc(C(=O)Nc3nnn[nH]3)c(OC3CCCC3C)c2c1 (stereo not drawn) [Example 8, 5-Methoxy-3-(2-methyl-cyclopentyloxy)-benzofuran-2-carboxylic acid (1H-tetrazol-5-yl)-amide]"
7,480 nM,"CC1CC(C)CC(Oc2c(C(=O)Nc3nnn[nH]3)oc3ccc(Cl)cc23)C1 (stereo not drawn) [Example 41, 5-Chloro-3-(3,5-dimethyl-cyclohexyloxy)-benzofuran-2-carboxylic acid (1H-tetrazol-5-yl)-amide]"
8,97 nM,3-Cycloheptyloxy-5-methoxy-benzofuran-2-carboxylic acid (1H-tetrazol-5-yl)-amide [Example 26]
9,220 nM,5-Methoxy-3-(1-methyl-cyclomethoxy)-benzofuran-2-carboxylic acid (1H-tetrazol-5-yl)-amide [Example 24]
10,108 nM,3-Cycloheptylmethoxy-5-methoxy-benzofuran-2-carboxylic acid (1H-tetrazol-5-yl)-amide [Example 29]

# Test system: not given
# Assay: not given
# Conditions: not given
row,melting point,Compound
1,243 to 244 °C,"O=C(Nc1nnn[nH]1)c1oc2ccc(Cl)cc2c1OCC1CC1 [Example 44, 5-Chloro-3-cyclopropylmethoxy-benzofuran-2-carboxylic acid (1H-tetrazol-5-yl)-amide]"
